Several values for one entry are separate records, joined by “and”; a condition that tells them apart may be missing. Equal entries are not always repeated. Where two headings read alike, the source gives them in different places.
How the values were obtained:
[1] = In vivo pharmacokinetics study in healthy subjects, 75-450 mg single dose, fasting (Test Example 2); design: species or system human (healthy male subjects); details: for CLz/F of SNAC / t1/2z of SNAC / λz of SNAC / AUC—% Extrap of SNAC / MRT last / MRT inf / AUC(0-inf) / Cmax / AUC(0-t) / Vd/F / Tmax: single oral, fasting, healthy male subjects; for CLz/F of SNAC / t1/2z of SNAC / λz of SNAC / AUC—% Extrap of SNAC / MRT last / MRT inf / AUC(0-inf) / Cmax / AUC(0-t) / Vd/F: Mean ± SD; for MRT last / MRT inf / AUC(0-inf) / Cmax / AUC(0-t) / Vd/F / Tmax: human; for MRT last: read-out: MRT0-t of SNAC; for MRT inf: read-out: MRT0-∞ of SNAC; for AUC(0-inf): read-out: AUC0-∞ of SNAC; for AUC(0-t): read-out: AUC0-t of SNAC; for Vd/F: read-out: Vz/F of SNAC; for Tmax: median
Experimental: To study the pharmacokinetic characteristics of 75 mg, 150 mg, 300 mg and 450 mg doses of abiraterone acetate tablets in healthy subjects after a single oral administration under fasting state.
A single-center, open-label, sequential trial design was applied. A total of 16 healthy male subjects were planned to be enrolled in the study, who entered the four dose groups sequentially and the washout period of each dose group was seven days. Blood samples were collected at a series of time points, and safety test was performed. The blood concentration of abiraterone at different time points after dosing was determined by HPLC-MS/MS. Pharmacokinetic parameters were calculated using non-compartmental model and statistically analyzed.
The subjects were admitted to the ward before dinner on the day before the administration of each studied dose. […] They were fasting for at least 10 hours before dosing. According to the trial protocol, subjects were given a single oral administration of the investigational drug, abiraterone acetate tablets, 75 mg (split 150 mg tablet along the score line into half a tablet), 150 mg (150 mg×1 tablet), 300 mg (150 mg×2 tablets) and 450 mg (150 mg×3 tablets) with 240 mL water under fasting state in the morning on the day of trial of each dose group. Liquid was prohibited before administration and within 1 h after administration, and standard lunch and dinner (a standardized light diet) were taken about 4 and 10 h after administration.
Test Formulation (T): Abiraterone acetate tablets (Formulation 5), specification: 150 mg.
PKPS (PKPS, all enrolled in the group and receiving the study drug, at least one subject with analyzable PK parameters during the trial) was used for the statistical analysis of pharmacokinetic parameters.
The linearity between AUC and Cmax and the administration dose was analyzed by confidence interval method, and linear regression analysis was performed on the AUC and Cmax after natural logarithmic transformation respectively and the administration dose, to observe the slope of the linear regression equation and 90% confidence interval.

[2] = as above; design: species or system human (healthy male subjects); details: single oral, healthy male subjects
[3] = after Formulation 5, dose group A 75 mg (equal SNAC content), N = 16
[4] = after Formulation 5, dose group B 150 mg (equal SNAC content), N = 15
[5] = after Formulation 5, dose group C 300 mg (equal SNAC content), N = 15
[6] = after Formulation 5, dose group D 450 mg (equal SNAC content), N = 15
[7] = dose range 75-450 mg of test formulation, confidence interval method, N = 16
[8] = blood, after Formulation 5, dose group A 75 mg (equal SNAC content), N = 16
[9] = blood, after Formulation 5, dose group B 150 mg (equal SNAC content), N = 15
[10] = blood, after Formulation 5, dose group C 300 mg (equal SNAC content), N = 15
[11] = blood, after Formulation 5, dose group D 450 mg (equal SNAC content), N = 15
[12] = plasma, after Formulation 5, dose group A 75 mg (equal SNAC content), N = 16
[13] = plasma, after Formulation 5, dose group B 150 mg (equal SNAC content), N = 15
[14] = plasma, after Formulation 5, dose group C 300 mg (equal SNAC content), N = 15
[15] = plasma, after Formulation 5, dose group D 450 mg (equal SNAC content), N = 15

O=C([O-])CCCCCCCNC(=O)c1ccccc1O.[Na+] [SNAC, sodium 8-(salicylamido)caprylate]
CLz/F of SNAC [1, 3]: 2.66 ×10^2 L · h^−1 and 2.66 ± 0.64 ×10^2 L · h^−1
t1/2z of SNAC [1, 3]: 3.53 h and 3.53 ± 2.54 h
λz of SNAC [1, 3]: 0.28 ± 0.14 h⁻¹
AUC—% Extrap of SNAC [1, 4]: 0.63 ± 0.62%
CLz/F of SNAC [1, 4]: 2.36 ×10^2 L · h^−1 and 2.36 ± 0.62 ×10^2 L · h^−1
t1/2z of SNAC [1, 4]: 2.94 h and 2.94 ± 1.39 h
λz of SNAC [1, 4]: 0.29 ± 0.14 h⁻¹
AUC—% Extrap of SNAC [1, 5]: 0.95 ± 0.91%
CLz/F of SNAC [1, 5]: 2.22 ×10^2 L · h^−1 and 2.22 ± 0.51 ×10^2 L · h^−1
t1/2z of SNAC [1, 5]: 5.35 h and 5.35 ± 3.92 h
λz of SNAC [1, 5]: 0.19 ± 0.11 h⁻¹
AUC—% Extrap of SNAC [1, 6]: 0.50 ± 0.44%
CLz/F of SNAC [1, 6]: 2.22 ×10^2 L · h^−1 and 2.22 ± 0.51 ×10^2 L · h^−1
t1/2z of SNAC [1, 6]: 4.88 h and 4.88 ± 2.37 h
λz of SNAC [1, 6]: 0.18 ± 0.09 h⁻¹
Slope of the linear regression equation (β), LnAUC0-t of SNAC vs dose [1, 7]: 1.10
Slope of the linear regression equation (β), LnAUC0-∞ of SNAC vs dose [1, 7]: 1.10
Slope of the linear regression equation (β), LnCmax of SNAC vs dose [1, 7]: 1.00
MRT last [1, 8]: 1.32 ± 0.52 h
MRT inf [1, 8]: 1.58 ± 0.76 h
MRT last [1, 9]: 1.21 ± 0.48 h
MRT inf [1, 9]: 1.32 ± 0.5 h
MRT last [1, 10]: 1.28 ± 0.36 h
MRT inf [1, 10]: 1.55 ± 0.54 h
AUC(0-inf) [1, 11]: 2130 ± 491 ng·h/mL
MRT last [1, 11]: 1.4 ± 0.53 h
MRT inf [1, 11]: 1.53 ± 0.51 h
Cmax [1, 12]: 407 ng/mL
AUC(0-t) [1, 12]: 291 ng·h/mL
AUC(0-inf) [1, 12]: 295 ± 61.4 ng·h/mL
Vd/F [1, 12]: 1280 L
Cmax [1, 13]: 977 ng/mL
AUC(0-t) [1, 13]: 668 ng·h/mL
AUC(0-inf) [1, 13]: 672 ± 152 ng·h/mL
Vd/F [1, 13]: 1010 L
Tmax [1, 13]: 0.5 h
Cmax [1, 14]: 1870 ng/mL
AUC(0-inf) [1, 14]: 1410 ± 285 ng·h/mL
Vd/F [1, 14]: 1740 L
Tmax [1, 14]: 0.5 h
Cmax [1, 15]: 2460 ng/mL
AUC(0-t) [1, 15]: 2120 ng·h/mL
Vd/F [1, 15]: 1520 L
Tmax [1, 15]: 0.5 h
AUC—% Extrap of SNAC ([2]; after Formulation 5, dose group A 75 mg (equal SNAC content), N = 16, Mean ± SD): 1.23 ± 1.12%
Tmax ([2]; human, plasma, after Formulation 5, dose group A 75 mg (equal SNAC content), N = 16, median): 0.38 h
AUC(0-t) ([2]; human, plasma, after Formulation 5, dose group C 300 mg (equal SNAC content), N = 15, Mean ± SD, read-out: AUC0-t of SNAC): 1400 ng·h/mL
